Measurements reported in article PMC10424185, “C-2 Thiophenyl Tryptophan Trimers Inhibit Cellular Entry of SARS-CoV-2 through Interaction with the Viral Spike (S) Protein” (Journal of Medicinal Chemistry, 2023).
“Also recorded” adds a separate entry of the source. Read-outs that look alike come from different tables or passages of the source.

What was measured:
[1] = tested on: VSV-S (pseudotyped VSV carrying the S protein of Wuhan-Hu-1 SARS-CoV-2); test: microbe, parasite or virus in culture; format: cell-based
[2] = tested on: VSV-S (pseudotyped VSV carrying the S protein of Wuhan-Hu-1 SARS-CoV-2); test: microbe, parasite or virus in culture; format: cell-based; conditions: Vesicular stomatitis virus, read-out: IC50 (concentration at which virus infection is reduced by 50%), VSV-S in A549-ACE2-TMPRSS2 cells
VSV-SWuhan-Hu-1 = test: microbe, parasite or virus in culture; format: cell-based, SARS-CoV-2; conditions: Vesicular stomatitis virus, VeroE6/TMPRSS2, read-out: IC50 ± SD, pseudotyped VSV carrying S of Wuhan-Hu-1
[3] = tested on: VSV-SOmicron (S protein of SARS-CoV-2 Omicron BA.1); test: organism not typed; format: cell-based
SARS-CoV-2 RBD [4] = molecular target: T1, SARS-CoV-2 RBD (Severe acute respiratory syndrome coronavirus 2, UniProt P0DTC2); format: binding
[5] = molecular target: binding of human ACE2 catalytic domain to RBD (Severe acute respiratory syndrome coronavirus 2, UniProt P0DTC2); set-up: species or system SARS-CoV-2 / human
in vitro [6] = conditions: African green monkey
in vitro [7] = conditions: human
[8] = tested on: VSV-G (VSV pseudotyped with its native glycoprotein); format: cell-based, vesicular stomatitis virus
SARS-CoV-2 RBD [9] = molecular target: T1, SARS-CoV-2 RBD; test: biochemical; format: binding
[10] = Vesicular stomatitis virus, Vero C1008, read-out: IC50 (concentration at which virus infection is reduced by 50%), VSV-S in Vero E6 cells
[11] = read-out: IC50 (concentration at which virus infection is reduced by 50%), VSV-S in Vero E6 cells
[12] = VeroE6/TMPRSS2, read-out: IC50 ± SD, pseudotyped VSV carrying S of Omicron BA.1
[13] = read-out: IC50 ± SD, pseudotyped VSV carrying S of Omicron BA.1

O=C(CCOCCOCCOCCOCCC(=O)NCC(=O)NC(CCC(=O)NC(Cc1c(Sc2ccc([N+](=O)[O-])cc2)[nH]c2ccccc12)C(=O)O)(CCC(=O)NC(Cc1c(Sc2ccc([N+](=O)[O-])cc2)[nH]c2ccccc12)C(=O)O)CCC(=O)NC(Cc1c(Sc2ccc([N+](=O)[O-])cc2)[nH]c2ccccc12)C(=O)O)NCC(=O)NC(CCC(=O)NC(Cc1c(Sc2ccc([N+](=O)[O-])cc2)[nH]c2ccccc12)C(=O)O)(CCC(=O)NC(Cc1c(Sc2ccc([N+](=O)[O-])cc2)[nH]c2ccccc12)C(=O)O)CCC(=O)NC(Cc1c(Sc2ccc([N+](=O)[O-])cc2)[nH]c2ccccc12)C(=O)O (stereo not drawn) [Compound 65]
IC50 [1, 10]: 0.28 ± 0.23 µM | IC50 [1, 11]: 0.3 ± 0.2 µM | IC50 [2]: 15.8 ± 1.5 µM | IC50 (VSV-SWuhan-Hu-1): 0.28 ± 0.23 µM | IC50 [3, 12]: 6.24 ± 0.16 µM | IC50 [3, 13]: < 10 µM | effect on thermofluor fluorescence profile / thermal stability of RBD (in words) (SARS-CoV-2 RBD [4]): shift of the curve toward lower temperatures | increase of ACE2 concentrations needed for binding to the RBD [5]: ~10 fold | CC50 (in vitro [6]): > 100 µM | CC50 (in vitro [7]): > 100 µM

NCC(=O)NC(CCC(=O)NC(Cc1c(Sc2ccc([N+](=O)[O-])cc2)[nH]c2ccccc12)C(=O)O)(CCC(=O)NC(Cc1c(Sc2ccc([N+](=O)[O-])cc2)[nH]c2ccccc12)C(=O)O)CCC(=O)NC(Cc1c(Sc2ccc([N+](=O)[O-])cc2)[nH]c2ccccc12)C(=O)O (stereo not drawn) [Compound 2]
infection (viral GFP reporter) when compound added one-hour post virus addition [1]: no decrease in infection | infection (viral GFP reporter) when compound added together with the virus [1]: strong reduction in infection | primary HTS screening result (in words) [1]: significant antiviral activity in the absence of cytotoxicity | IC50 [1, 10]: 0.64 ± 0.47 µM | IC50 ([1]; Vesicular stomatitis virus, Vero C1008, read-out: IC50, compound preincubated with the cells): 0.32 µM | IC50 ([1]; Vesicular stomatitis virus, Vero C1008, read-out: IC50, compound preincubated with the virus): 0.48 µM | IC50 [1, 11]: 0.6 ± 0.5 µM | IC50 [2]: 1 ± 0.4 µM | IC50 (VSV-SWuhan-Hu-1): 0.08 ± 0.07 µM | IC50 [3, 13]: 21.7 ± 0.83 µM | effect on thermofluor fluorescence profile / thermal stability of RBD (in words) (SARS-CoV-2 RBD [4]): shift of the curve toward lower temperatures | increase of ACE2 concentrations needed for binding to the RBD [5]: ~10 fold | antiviral activity against VSV-G [8]: no antiviral activity | CC50 (in vitro [6]): > 100 µM | CC50 (in vitro [7]): > 100 µM

CS(=O)(=O)c1ccc(Sc2[nH]c3ccccc3c2CC(NC(=O)CCC(CCC(=O)NC(Cc2c(Sc3ccc(S(C)(=O)=O)cc3)[nH]c3ccccc23)C(=O)O)(CCC(=O)NC(Cc2c(Sc3ccc(S(C)(=O)=O)cc3)[nH]c3ccccc23)C(=O)O)NC(=O)CN)C(=O)O)cc1 (stereo not drawn) [Compound 42]
antiviral activity in the VSV-S assay (in words) [1]: no antiviral activity | IC50 [1, 10]: > 50 µM | effect on thermofluor fluorescence profile / thermal stability of RBD (in words) (SARS-CoV-2 RBD [4]): did not cause any change in the curve; also recorded: no effect on the thermal stability of the RBD | Kd (SARS-CoV-2 RBD [9]): ≥ 2500 µM | CC50 (in vitro [6]): > 100 µM

NCCOCCOCCC(=O)NCC(=O)NC(CCC(=O)NC(Cc1c(Sc2ccc([N+](=O)[O-])cc2)[nH]c2ccccc12)C(=O)O)(CCC(=O)NC(Cc1c(Sc2ccc([N+](=O)[O-])cc2)[nH]c2ccccc12)C(=O)O)CCC(=O)NC(Cc1c(Sc2ccc([N+](=O)[O-])cc2)[nH]c2ccccc12)C(=O)O (stereo not drawn) [Compound 63]
IC50 [1, 10]: 0.7 ± 0.9 µM | IC50 [2]: 1.4 ± 1.1 µM | IC50 (VSV-SWuhan-Hu-1): 0.01 µM | IC50 [3, 12]: 25.4 µM | CC50 (in vitro [6]): > 100 µM | CC50 (in vitro [7]): > 100 µM
